pIC50: −log10 of the molar value.
How the values were obtained:
rat NaP2b (SLC34A2) = target: T1, rat NaP2b (SLC34A2) (Rattus norvegicus, UniProt Q9JJ09); assay: Inhibition of NaP2b-mediated Pi (33P) uptake in transfected HEK293 cells, rat NaP2b; format: cell-based; conditions: 33P Pi uptake, 0.1 mM phosphate, value given as pIC50 range
T1 construct: host or cells: HEK293
T1 sequence (Q9JJ09 1-695): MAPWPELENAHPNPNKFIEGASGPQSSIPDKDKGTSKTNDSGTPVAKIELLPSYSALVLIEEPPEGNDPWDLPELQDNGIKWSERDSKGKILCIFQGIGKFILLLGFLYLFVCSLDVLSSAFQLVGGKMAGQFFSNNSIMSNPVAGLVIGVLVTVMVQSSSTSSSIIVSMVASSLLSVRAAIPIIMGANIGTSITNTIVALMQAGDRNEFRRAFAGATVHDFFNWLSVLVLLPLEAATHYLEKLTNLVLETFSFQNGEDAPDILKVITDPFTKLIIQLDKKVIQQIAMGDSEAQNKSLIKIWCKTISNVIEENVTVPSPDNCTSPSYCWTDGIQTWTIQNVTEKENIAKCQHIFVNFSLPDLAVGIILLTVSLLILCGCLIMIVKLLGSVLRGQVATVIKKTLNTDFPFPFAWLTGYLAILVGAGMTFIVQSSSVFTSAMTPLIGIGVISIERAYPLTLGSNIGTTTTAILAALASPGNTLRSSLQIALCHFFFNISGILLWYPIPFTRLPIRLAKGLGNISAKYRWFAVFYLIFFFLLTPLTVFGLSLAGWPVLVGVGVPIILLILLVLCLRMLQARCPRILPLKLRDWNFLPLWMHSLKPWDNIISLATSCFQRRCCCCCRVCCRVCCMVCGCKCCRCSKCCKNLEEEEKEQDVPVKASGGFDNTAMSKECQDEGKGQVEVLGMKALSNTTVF
How it was run: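 The cells transiently expressed NaP2b after Lipofectamine transfection. Each compound was run in duplicate over twelve concentrations, 0.1 nM–30 uM.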

human NaP2b (SLC34A2) = target: T2, human NaP2b (SLC34A2) (Homo sapiens, UniProt O95436); assay: Inhibition of NaP2b-mediated Pi (33P) uptake in transfected HEK293 cells, human NaP2b; format: cell-based; conditions: read-out: pIC50 range for human NaP2b (converted)
T2 construct: host or cells: HEK293
T2 sequence (O95436 1-690): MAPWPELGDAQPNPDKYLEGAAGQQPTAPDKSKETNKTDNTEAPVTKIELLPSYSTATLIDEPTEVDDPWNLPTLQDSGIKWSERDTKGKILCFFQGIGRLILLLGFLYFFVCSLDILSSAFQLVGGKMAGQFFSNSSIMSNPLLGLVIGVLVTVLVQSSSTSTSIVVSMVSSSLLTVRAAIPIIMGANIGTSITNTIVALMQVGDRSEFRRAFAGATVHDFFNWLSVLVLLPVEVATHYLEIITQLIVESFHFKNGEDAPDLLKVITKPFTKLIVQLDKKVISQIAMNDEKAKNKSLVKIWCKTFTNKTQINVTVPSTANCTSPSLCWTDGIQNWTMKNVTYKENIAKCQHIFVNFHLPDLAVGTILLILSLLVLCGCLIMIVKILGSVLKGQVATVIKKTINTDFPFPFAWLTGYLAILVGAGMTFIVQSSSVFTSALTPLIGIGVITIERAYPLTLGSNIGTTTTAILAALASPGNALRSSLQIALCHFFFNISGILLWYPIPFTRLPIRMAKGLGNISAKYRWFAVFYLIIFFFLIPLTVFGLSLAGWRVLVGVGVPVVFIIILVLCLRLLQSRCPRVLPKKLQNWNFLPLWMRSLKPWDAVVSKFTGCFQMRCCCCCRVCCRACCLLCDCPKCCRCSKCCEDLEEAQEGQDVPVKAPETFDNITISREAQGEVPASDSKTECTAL
Experimental: HEK293 cells were obtained from the American Type Culture collection and propagated per their instructions. Expression clones for rat and human NaP2b (SLC34A2) were obtained from Open Biosystems (Catalog numbers MRN1768-9510282, and MHS1010-99823026, respectively). The sequence of the human protein was mutated to insert a threonine after residue 37, and to introduce a N39D mutation.
The rate of phosphate (Pi) uptake into HEK293 cells was measured using a modification of the method described by Mohrmann et al. (Mohrmann, I., Mohrmann, M., Biber, J., and Murer, H. (1986) Am. J. Phys. 250(3 Pt 1):G323-30.) Transfected HEK293 cells were treated with a pharmacological agent to minimize endogenous PiT-mediated phosphate transport activity, such that the only remaining sodium-dependent phosphate transport activity is that which was bestowed by introduction of the NaP2b genes.
Cells were seeded into 96-well plates at 25,000 cells/well and cultured overnight. Lipofectamine 2000 (Invitrogen) was used to introduce the NaP2b cDNA, and the cells were allowed to approach confluence during a second overnight incubation. […] Cells were then overlayed with either choline uptake buffer or sodium uptake buffer (14 mM Tris, 137 mM sodium chloride, 5.4 mM KCl, 2.8 mM CaCl2, 1.2 mM MgSO4, 100 uM KH2PO4, PiT-silencing agent, 1 mg/mL Bovine Serum Albumin, pH 7.4) containing 6-9 uCi/mL ^33P orthophosphoric acid (Perkin Elmer) and test compound. Each compound was tested at twelve concentrations ranging from 0.1 nM to 30 uM. Assays were run in duplicate.
After incubation for 3-30 minutes at room temperature, assay mixtures were removed, and the cells were washed twice with ice cold stop solution (137 mM sodium chloride, 14 mM Tris, pH 7.4). Cells were lysed by addition of 20 μL 0.1% Tween 80 followed by 100 μL scintillation fluid, and counted using a TopCount (Perkin Elmer).
pIC50 (the negative log of the IC50) values of the test compounds were calculated using GraphPad Prism.

pIC50 (rat NaP2b (SLC34A2)) | IC50 (human NaP2b (SLC34A2)) | Compound
> 6.00 | < 1000 nM | CCN(CC)c1ccc(NC(=O)c2cccc(C(=O)N(C)CCN3CCN(C(=O)N(C)CCOCCOCCOCCC(=O)OC(C)(C)C)CC3)c2)c(-c2cc(C(=O)N[C@H]3CCCc4ccccc43)ccn2)c1 [Example 212, tert-butyl 3-[2-(2-{2-[(4-{2-[1-(3-{[4-(diethylamino)-2-(4-{[(1S)-1,2,3,4-tetrahydronaphthalen-1-yl]carbamoyl}pyridin-2-yl)phenyl]carbamoyl}phenyl)-N-methylformamido]ethyl}piperazin-1-yl)carbonyl(methyl)amino]ethoxy}ethoxy)ethoxy]propanoate]
4.50 to 5.00 | 1000 to 7940 nM | COCCOCCOCCOCCOCCOCCOCCOCC(=O)N1CCCN(CCN(C)C(=O)c2cccc(C(=O)Nc3ccc(N4CCCCC4)cc3-c3cc(C(=O)N[C@H]4CCCc5ccccc54)ccn3)c2)CC1 [Example 213, (S)—N1-(2-(4-2,5,8,11,14,17,20,23-octaoxapentacosane-1,4-diazepan-1-yl)ethyl)-N1-methyl-N3-(4-(piperidin-1-yl)-2-(4-(1,2,3,4-tetrahydronaphthalen-1-ylcarbamoyl)pyridin-2-yl)phenyl)isophthalamide]
5.10 to 6.00 | 1000 to 7940 nM | COCCOCCOCCOCCOCCOCCOCCOC(=O)N1CCCN(CCN(C)C(=O)c2cccc(C(=O)Nc3ccc(N4CCCCC4)cc3-c3cc(C(=O)N[C@H]4CCCc5ccccc54)ccn3)c2)CC1 [Example 214, (S)-2,5,8,11,14,17,20-heptaoxadocosan-22-yl 4-(2-(N-methyl-3-(4-(piperidin-1-yl)-2-(4-(1,2,3,4-tetrahydronaphthalen-1-ylcarbamoyl)pyridin-2-yl)phenylcarbamoyl)benzamido)ethyl)-1,4-diazepane-1-carboxylate]
> 6.00 | < 1000 nM | CN(CCN1CCCN(C(=O)OC(C)(C)C)CC1)C(=O)c1cccc(C(=O)Nc2ccc(N3CCCCC3)cc2-c2cc(C(=O)N[C@H]3CCCc4ccccc43)ccn2)c1 [Example 219, (S)-tert-butyl 4-(2-(N-methyl-3-(4-(piperidin-1-yl)-2-(4-(1,2,3,4-tetrahydronaphthalen-1-ylcarbamoyl)pyridin-2-yl)phenylcarbamoyl)benzamido)ethyl)-1,4-diazepane-1-carboxylate]
> 6.00 | 1000 to 7940 nM | CN(CCN1CCCN(S(C)(=O)=O)CC1)C(=O)c1cccc(C(=O)Nc2ccc(N3CCCCC3)cc2-c2cc(C(=O)N[C@H]3CCCc4ccccc43)ccn2)c1 [Example 220, (S)—N1-methyl-N1-(2-(4-(methylsulfonyl)-1,4-diazepan-1-yl)ethyl)-N3-(4-(piperidin-1-yl)-2-(4-(1,2,3,4-tetrahydronaphthalen-1-ylcarbamoyl)pyridin-2-yl)phenyl)isophthalamide]
> 6.00 | < 1000 nM | CCN(CC)c1ccc(NC(=O)c2cccc(C(=O)N(C)CCN(C)CCOCCOCCOCCN=[N+]=[N-])c2)c(-c2cc(C(=O)N[C@H]3CCCc4ccccc43)ccn2)c1 [Example 222, (S)—N1-(14-azido-3-methyl-6,9,12-trioxa-3-azatetradecyl)-N3-(4-(diethylamino)-2-(4-(1,2,3,4-tetrahydronaphthalen-1-ylcarbamoyl)pyridin-2-yl)phenyl)-N1-methylisophthalamide]
4.50 to 5.00 | > 31600 nM | CCN(CC)c1ccc(NC(=O)c2cccc(C(=O)N(C)CCN(C)CCOCCOCCOCCNC(=O)NCCN3CCOCC3)c2)c(-c2cc(C(=O)N[C@H]3CCCc4ccccc43)ccn2)c1 [Example 223, (S)—N1-(4-(diethylamino)-2-(4-(1,2,3,4-tetrahydronaphthalen-1-ylcarbamoyl)pyridin-2-yl)phenyl)-N3-methyl-N3-(17-methyl-1-morpholino-4-oxo-8,11,14-trioxa-3,5,17-triazanonadecan-19-yl)isophthalamide]

More lines, now with the values behind:

Compound | pIC50 (rat NaP2b (SLC34A2)) | IC50 (human NaP2b (SLC34A2))
O=C(O)c1cccc(COc2cccc(C(=O)Nc3ccc(N4CCCCC4)cc3-c3cc(C(=O)NCc4cccc(C(F)(F)F)c4)ccn3)c2)c1 [Example 183, 3-((3-(4-(piperidin-1-yl)-2-(4-(3-(trifluoromethyl)benzylcarbamoyl)pyridin-2-yl)phenylcarbamoyl)phenoxy)methyl)benzoic acid] | 5.10 to 6.00 | 1000 to 7940 nM
O=C(O)c1cccc(COCc2cccc(C(=O)Nc3ccc(N4CCCCC4)cc3-c3cc(C(=O)NCc4cccc(C(F)(F)F)c4)ccn3)c2)c1 [Example 185, 3-((3-(4-(piperidin-1-yl)-2-(4-(3-(trifluoromethyl)benzylcarbamoyl)pyridin-2-yl)phenylcarbamoyl)benzyloxy)methyl)benzoic acid] | 5.10 to 6.00 | < 1000 nM
CN(CCN1CCC[C@H]1C(=O)OC(C)(C)C)C(=O)c1cccc(C(=O)Nc2ccc(N3CCCCC3)cc2-c2cc(C(=O)N[C@H]3CCCc4ccccc43)ccn2)c1 [Example 187, (S)-tert-butyl 1-(2-(N-methyl-3-((4-(piperidin-1-yl)-2-(4-(((S)-1,2,3,4-tetrahydronaphthalen-1-yl)carbamoyl)pyridin-2-yl)phenyl)carbamoyl)benzamido)ethyl)pyrrolidine-2-carboxylate] | > 6.00 | 1000 to 7940 nM
CN(CCN1CCC[C@H]1C(=O)NCCOCCOCCOCCC(=O)OC(C)(C)C)C(=O)c1cccc(C(=O)Nc2ccc(N3CCCCC3)cc2-c2cc(C(=O)N[C@H]3CCCc4ccccc43)ccn2)c1 [Example 192, tert-butyl 1-((S)-1-(2-(N-methyl-3-((4-(piperidin-1-yl)-2-(4-(((S)-1,2,3,4-tetrahydronaphthalen-1-yl)carbamoyl)pyridin-2-yl)phenyl)carbamoyl)benzamido)ethyl)pyrrolidin-2-yl)-1-oxo-5,8,11-trioxa-2-azatetradecan-14-oate] | > 6.00 | < 1000 nM
CCN(CC)c1ccc(NC(=O)c2cccc(C(=O)N(C)CCN3CCCC[C@H]3C(=O)NCCOCCOCCOCCOCCOCCOCCOCCOC)c2)c(-c2cc(C(=O)NCc3cccc(C(F)(F)F)c3)ccn2)c1 [Example 201, (S)—N^1-(2-(2-(2,5,8,11,14,17,20,23-octaoxapentacosan-25-yl-carbamoyl)piperidin-1-yl)ethyl)-N^3-(4-(diethylamino)-2-(4-((3-(trifluoromethyl)benzyl)carbamoyl)pyridin-2-yl)phenyl)-N^1-methylisophthalamide] | 5.10 to 6.00 | 1000 to 7940 nM

Reference: patent US20140023611A1 (priority 2010, published 2014)
